Test results reported in paper PMC6273176, “In Silico Mining for Antimalarial Structure-Activity Knowledge and Discovery of Novel Antimalarial Curcuminoids” (Molecules, 2016).
Where two headings read alike, the source gives them in different places.

Columns and labels:
P. falciparum 3D7 strain = assay: Antiplasmodial activity, SYBR Green I assay on P. falciparum 3D7 cultures; format: cell-based, Plasmodium falciparum; details: for IC50: read-out: Plasmodium falciparum 3D7 Strain IC50 ± SD
Experimental: In vitro biological assays. Compounds were tested to establish a full dose-titration and determination of the IC50. […] Antiplasmodial activity. The P. falciparum 3D7 strain was maintained in O+ human erythrocytes in albumin RPMI-supplemented medium under continuous culture using the candle-jar method. The parasites were synchronized to the ring stage by repeated sorbitol treatment. A 2.5% (v/v) erythrocyte suspension with 1% parasitemia (number of parasites per 100 red blood cells) was incubated with the compounds to be tested, previously dissolved in DMSO. […] After 44 h of incubation at 37 °C, the plates were subjected to 3 freeze-thaw cycles to achieve complete hemolysis. […] The incorporation of SYBR Green I (Applied Biosystems) in parasite DNA was measured using the Master […]® (Eppendorf) according to the following program to increase the SYBR Green incorporation: 90 °C (1 min), decrease in temperature from 90 °C to 10 °C (during 5 min) with reading the fluorescence. Then, the IC50 was calculated by icestimator software.

[1] = Cytotoxicity assay on MRC-5 fibroblasts (resazurin); format: cell-based, human; details: human
Experimental: (§1) In vitro biological assays. Compounds were tested to establish a full dose-titration and determination of the IC50. […] The selectivity antiprotozoal potential on P. falciparum (3D7 strain) was assessed by simultaneous evaluation of cytotoxicity on a fibroblast (MRC-5) cell line.
(§2) Cytotoxicity assay. […] Cell viability was assessed fluorometrically after 4 h of the addition of resazurin. Fluorescence was measured (excitation 550 nm, emission 590 nm), and the results were expressed as % reduction in cell viability compared to untreated control. Tamoxifen is used as the reference control.

[2] = tested on: human fibroblast MRC-5 cell line; assay: as above; format: cell-based
Experimental: as §1, §2

[3] = Plasmodium falciparum, 3D7, 44 h, 3D7 strain, ring-stage synchronized, 44 h incubation, SYBR Green I
[4] = MRC-5 SV2 cells, 72 h, resazurin, read-out: Cytotoxicity MRC-5 CC50
[5] = Plasmodium falciparum, 3D7, 44 h

Compound | IC50 (P. falciparum 3D7 strain; [3]) [µM] | CC50 at 72 h [1] [µM] | SI CC50/IC50 [2] | cytotoxicity classification from CC50 [2] | further results
O=C(/C=C/c1ccc(Cl)cc1)/C=C/c1ccc(Cl)cc1 [Compound A9] | 0.121 ± 0.0124 | 42.4 | 351.6 | rather not cytotoxic | –
O=C1C[C@@H](c2c(Cl)cccc2Cl)S[C@H](c2c(Cl)cccc2Cl)C1 [Compound B8] | > 0.5 | > 64 | <128 | – | –
O=C(/C=C/c1c(Cl)cccc1Cl)/C=C/c1c(Cl)cccc1Cl [Compound A12] | 0.24 ± 0.0204 | – | >266.5 | – | CC50 at 72 h [1, 4]: > 64 µM
CC/C(=C(\c1ccccc1)c1ccc(OCCN(C)C)cc1)c1ccccc1 [tamoxifen, reference compound] | – | – | – | – | CC50 at 72 h ([1]; MRC-5 SV2 fibroblast cells, MRC-5 SV2 cells, 72 h, resazurin, read-out: Cytotoxicity MRC-5 CC50): 9.12 µM
COc1ccc(/C=C/C(=O)/C=C/c2ccc(N)cc2)cc1 [Compound A15] | > 0.5 | – | – | – | –
O=C(/C=C/c1ccccn1)/C=C/c1ccccn1 [Compound A1] | 0.0301 ± 0.0085 | 1.91 | 63.4 | – | cytotoxicity classification from CC50 ([2]; MRC-5 cells, class in words): rather cytotoxic
CCN(CC)CCCC(C)Nc1ccnc2cc(Cl)ccc12 (stereo not drawn) [chloroquine, reference compound] | – | – | – | – | IC50 (P. falciparum 3D7 strain; [5]): 0.0203 ± 0.0052 µM
O=C1C[C@H](c2ccccn2)S[C@@H](c2ccccn2)C1 [Compound B7] | > 0.5 | – | <128 | – | CC50 at 72 h [1, 4]: > 64 µM
Cc1ccc(/C=C/C(=O)/C=C/c2ccc(C)cc2)cc1 [Compound A17] | > 0.5 | 32.5 | <64.9 | rather not cytotoxic | –
O=C(/C=C/c1ccco1)/C=C/c1ccco1 [Compound A8] | 0.121 ± 0.0105 | – | >530.2 | – | CC50 at 72 h [1, 4]: > 64 µM
COc1ccc(O)c(/C=C/C(=O)/C=C/c2cc(OC)ccc2O)c1 [Compound A2] | 0.0302 ± 0.0063 | 1.88 | 62.2 | – | cytotoxicity classification from CC50 ([2]; MRC-5 cells, class in words): rather cytotoxic
CN(C)c1ccc(/C=C/C(=O)/C=C/c2nccs2)cc1 [Compound A6] | 0.111 ± 0.0125 | > 64 | – | – | –
CN(C)c1ccc([C@H]2CC(=O)C[C@H](c3ccc(N(C)C)cc3)S2)cc1 [Compound B12] | > 0.5 | 4.96 | <9.9 | moderately cytotoxic | observed activity against 3D7 P. falciparum strain (in words) (P. falciparum 3D7 strain; in vitro 3D7 culture, active/inactive): inactive
COc1cc([C@@H]2CC(=O)C[C@@H](c3cc(OC)c(C)cc3OC)S2)c(OC)cc1C [Compound B2] | 0.0306 ± 0.0092 | – | – | – | –
O=C1C[C@@H](c2c(Cl)cccc2Cl)S[C@@H](c2c(Cl)cccc2Cl)C1 [Compound B4] | 0.0604 ± 0.0102 | – | – | – | –
O=C1C[C@H](c2ccccn2)[S+]([O-])[C@H](c2ccccn2)C1 (stereo partly drawn) [Compound B5] | – | 8.06 | 33.6 | – | IC50 (P. falciparum 3D7 strain; 3D7 strain, ring-stage synchronized, 44 h incubation, SYBR Green I): 0.24 ± 0.0481 µM; cytotoxicity classification from CC50 ([2]; MRC-5 cells, class in words): moderately cytotoxic
O=C(/C=C/c1ccccc1)/C=C/c1ccncc1 [Compound A7] | 0.12 ± 0.0173 | 1.99 | 16.5 | rather cytotoxic | –

Compound | IC50 (P. falciparum 3D7 strain; [3]) [µM] | CC50 at 72 h [1] [µM] | SI CC50/IC50 [2] | cytotoxicity classification from CC50 [2] | further results
Cc1ccc(/C=C/C(=O)/C=C/c2ccc(C)o2)o1 [Compound A16] | > 0.5 | 5.36 | <10.7 | – | cytotoxicity classification from CC50 ([2]; MRC-5 cells, class in words): rather cytotoxic
O=C(/C=C/c1ccc(F)cc1)/C=C/c1ccc(F)cc1 [Compound A4] | 0.0706 ± 0.0097 | – | – | – | –
O=C1C[C@@H](c2ccccn2)S[C@@H](c2ccccn2)C1 [Compound B6] | > 0.5 | – | <128 | – | CC50 at 72 h [1, 4]: > 64 µM
O=C(/C=C/c1ccncc1)/C=C/c1ccncc1 [Compound A13] | > 0.5 | 1.13 | <2.3 | rather cytotoxic | –
CN(C)c1ccc(/C=C/C(=O)/C=C/c2ccc(F)cn2)cc1 [Compound A5] | 0.11 ± 0.0203 | 32.2 | 292.4 | rather not cytotoxic | –
COc1ccc(/C=C/C(=O)/C=C/c2ccc3ccccc3c2)cc1 [Compound A3] | 0.0512 ± 0.0107 | 32 | 625 | rather not cytotoxic | –
O=C1C[C@H](c2ccccn2)S(=O)(=O)[C@@H](c2ccccn2)C1 [Compound B9] | > 0.5 | 7.89 | <15.8 | – | cytotoxicity classification from CC50 ([2]; MRC-5 cells, class in words): moderately cytotoxic
O=C(/C=C/c1ccccc1)/C=C/c1ccccn1 [Compound A10] | 0.161 ± 0.0205 | 1.53 | 9.5 | rather cytotoxic | –
COc1cc(Br)c(OC)c([C@@H]2CC(=O)C[C@H](c3cc(OC)cc(Br)c3OC)S2)c1 [Compound B1] | 0.0303 ± 0.0061 | > 64 | >2112.2 | – | –
O=C(/C=C/c1ccccc1Cl)/C=C/c1ccccc1Cl [Compound A11] | 0.181 ± 0.0296 | 29.4 | 162.3 | – | –
COc1cc(/C=C/C(=O)/C=C/c2ccc(O)c(OC)c2)ccc1O [Compound A18] | – | 1.06 | <2.1 | rather cytotoxic | IC50 (P. falciparum 3D7 strain; [5]): > 0.5 µM
COc1ccc([C@H]2CC(=O)C[C@H](c3ccc(OC)cc3)S2(=O)=O)cc1 [Compound B10] | > 0.5 | – | <128 | – | CC50 at 72 h [1, 4]: > 64 µM
O=C(/C=C/c1ccccc1)/C=C/c1ncccn1 [Compound A14] | > 0.5 | 1.56 | <3.1 | rather cytotoxic | –
CN(C)c1ccc(/C=C/C(=O)/C=C/c2ccc(N(C)C)cc2)cc1 [Compound A19] | > 0.5 | 62.3 | <124.5 | rather not cytotoxic | –
O=C1C[C@H](c2ccccn2)[S+]([O-])[C@@H](c2ccccn2)C1 [Compound B3] | 0.0401 ± 0.0073 | 8 | 199.5 | – | cytotoxicity classification from CC50 ([2]; MRC-5 cells, class in words): moderately cytotoxic
O=C1C[C@H](c2ccccn2)S(=O)(=O)[C@H](c2ccccn2)C1 [Compound B11] | > 0.5 | 7.47 | <14.9 | – | cytotoxicity classification from CC50 ([2]; MRC-5 cells, class in words): moderately cytotoxic
